Key:
[1] = tested on: paclitaxel induced peripheral neuropathy; experiment: Reversal of allodynia induced by paclitaxel in mice (s.c. or p.o., von Frey frequency method); type: in vivo, c57bl/6 mice; conditions: Mus musculus, po, 1 h, 3 mg/kg p.o., tested 60 min after dosing, read-out: Screen @ 3 mg/kg po (% MPE)
Method: Compounds were tested for efficacy in mouse models of chemotherapy induced peripheral neuropathy. […] For these studies […]/6 mice are habituated to the test environment and baseline measurements of pain sensitivity are assessed. To determine mechanical responses, the threshold for responses to punctate mechanical stimuli (mechanical hyperalgesia) was tested according to the frequency method. In brief, the plantar surface of the animal hindpaw was stimulated with a single von Frey monofilament (0.4 g) for approximately 1-2 seconds. If there was a withdrawal response, it was recorded as a positive response. A response was defined as a lifting or shaking of the paw upon stimulation. This was repeated ten times for each mouse. The final measurement for each mouse is the % non-response to stimulation for the ten trials. The % non-response to stimulation is converted to a % MPE. For paclitaxel induced peripheral neuropathy, a series of injections of PAC (6 mg/kg, i.p.) on days 1, 3, 5 and 7 is used to induce peripheral neuropathy. After approximately 14 days from the initiation of PAC injections, animals are re-assessed for mechanical sensitivity. […] On test day animals are dosed with compounds either subcutaneously or orally and tested for mechanical response by the frequency method either 30 min (s.c.) or 60 min (p.o.) after drug administration. Data is presented as a % MPE. For oxaliplatin induced peripheral neuropathy, a series of injections of OXA (4 mg/kg, i.p.) on days 1-5 is used to induce peripheral neuropathy. After approximately 14 days from the initiation of PAC injections, animals are re-assessed for mechanical sensitivity. […] On test day animals are dosed with compounds subcutaneously and tested for mechanical response by the frequency method 30 min after drug administration. Data is presented as a % MPE. One or more of the compounds show reversal of chemotherapeutic induced peripheral neuropathy.

[2] = molecular target: T1, human sphingosine-1-phosphate receptor 1 (S1P1) (Homo sapiens (Human), UniProt P21453); experiment: Inhibition of cAMP production (HTRF cAMP HiRange), S1P1 CHO-K1 cells; type: cell-based; conditions: for hS1P1 cAMP pEC50: inhibition of cAMP production, S1P1 CHO-K1 cells; for Emax: CHO-K1, efficacy (SPAN) normalized to fingolimod, read-out: hS1P1 cAMP SPAN
Procedure, shortened: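 CHO-K1 cells stably co-expressing human S1P1 (C-terminal Prolink tag) and EA-β-arrestin2 were grown in AssayComplete Media 6 at 37° C. and 5% CO2, plated, and incubated overnight. Agonist-driven inhibition of intracellular cAMP was read by TR-FRET with the HTRF cAMP HiRange kit on a PheraStar reader. Potency is pEC50, and efficacy (SPAN) is normalized to fingolimod.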
Target sequence in this assay (P21453 whole entry, looked up): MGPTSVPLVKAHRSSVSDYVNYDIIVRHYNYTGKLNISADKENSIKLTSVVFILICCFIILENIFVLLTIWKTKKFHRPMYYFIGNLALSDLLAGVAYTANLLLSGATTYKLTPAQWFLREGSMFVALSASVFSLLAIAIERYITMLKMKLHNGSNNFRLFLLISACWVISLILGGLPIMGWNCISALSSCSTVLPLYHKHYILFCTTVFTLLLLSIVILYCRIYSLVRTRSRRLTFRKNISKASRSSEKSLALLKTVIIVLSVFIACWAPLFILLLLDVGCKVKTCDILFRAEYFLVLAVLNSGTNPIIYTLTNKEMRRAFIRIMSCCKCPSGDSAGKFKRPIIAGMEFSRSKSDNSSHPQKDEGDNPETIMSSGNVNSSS

[3] = molecular target: T1, human sphingosine-1-phosphate receptor 1 (S1P1); experiment: β-Arrestin2 recruitment assay (PathHunter), S1P1 CHO-K1 cells; type: cell-based; conditions: for hS1P1 B-arrestin2 pEC50: β-arrestin2 recruitment, S1P1 CHO-K1 cells; for Emax: CHO-K1, efficacy (SPAN) normalized to fingolimod, read-out: hS1P1 B-arrestin2 SPAN
Procedure, shortened: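 Enzyme-fragment complementation read-out: agonist-driven β-arrestin2 binding to ProLink-tagged human S1P1 in stable CHO-K1 cells restores β-galactosidase, measured 1 h at room temperature after a 60 min 37° C. compound incubation. Potency as pEC50, efficacy relative to fingolimod (SPAN).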
Target sequence in this assay (P21453 whole entry, looked up): as above
Target sequence in this assay (P32121 whole entry partner, looked up): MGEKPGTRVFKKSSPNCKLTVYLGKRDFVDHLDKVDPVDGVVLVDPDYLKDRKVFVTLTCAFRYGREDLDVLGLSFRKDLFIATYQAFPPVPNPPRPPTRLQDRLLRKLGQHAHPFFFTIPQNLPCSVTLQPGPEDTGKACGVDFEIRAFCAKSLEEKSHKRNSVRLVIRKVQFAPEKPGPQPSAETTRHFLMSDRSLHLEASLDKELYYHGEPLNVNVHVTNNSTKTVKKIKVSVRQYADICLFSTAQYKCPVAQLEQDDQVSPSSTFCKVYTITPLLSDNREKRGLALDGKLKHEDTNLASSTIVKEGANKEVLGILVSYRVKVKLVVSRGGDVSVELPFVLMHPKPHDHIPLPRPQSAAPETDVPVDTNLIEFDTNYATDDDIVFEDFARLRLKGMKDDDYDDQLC

N#Cc1cc(-c2nc(-c3ccc4c(c3)CCC(=O)N4)no2)ccc1NCC(F)(F)F [Compound 472, 5-[3-(2-oxo-1,2,3,4-tetrahydroquinolin-6-yl)-1,2,4-oxadiazol-5-yl]-2-[(2,2,2-trifluoroethyl)amino]benzonitrile]
inhibition in vivo at 3 mg/kg [1]: > 50% | hS1P1 cAMP pEC50 [2]: >6.5 | hS1P1 B-arrestin2 pEC50 [3]: >5

CCC1(CC)CC(=O)c2cc(-c3nc(-c4cncc(N)c4)no3)ccc2O1 [Compound 502, 6-(3-(5-aminopyridin-3-yl)-1,2,4-oxadiazol-5-yl)-2,2-diethylchroman-4-one]
inhibition in vivo at 3 mg/kg [1]: > 50% | hS1P1 cAMP pEC50 [2]: >6.5 | hS1P1 B-arrestin2 pEC50 [3]: >5

CCC1(CC)CC(=O)c2cc(-c3nc(-c4ccnc(N)c4)no3)ccc2O1 [Compound 513, 6-(3-(2-aminopyridin-4-yl)-1,2,4-oxadiazol-5-yl)-2,2-diethylchroman-4-one]
inhibition in vivo at 3 mg/kg [1]: < 50% | hS1P1 cAMP pEC50 [2]: >6.5 | hS1P1 B-arrestin2 pEC50 [3]: >5

CC(C)Nc1ccc(-c2nc(-c3ccc4c(c3)C(=O)NCC4)no2)cc1C#N [Compound 514, 2-(isopropylamino)-5-(3-(1-oxo-1,2,3,4-tetrahydroisoquinolin-7-yl)-1,2,4-oxadiazol-5-yl)benzonitrile]
inhibition in vivo at 3 mg/kg [1]: > 50% | hS1P1 cAMP pEC50 [2]: >6.5 | hS1P1 B-arrestin2 pEC50 [3]: >5

Cc1cn(C)nc1-c1noc(-c2ccc3c(c2)nnn3C(C)C)n1 [Compound 519, 5-[3-(1,4-dimethyl-1H-pyrazol-3-yl)-1,2,4-oxadiazol-5-yl]-1-(propan-2-yl)-1H-1,2,3-benzotriazole]
inhibition in vivo at 3 mg/kg [1]: < 50% | Emax [2]: > 75% | hS1P1 cAMP pEC50 [2]: >6.5 | Emax [3]: > 75% | hS1P1 B-arrestin2 pEC50 [3]: >5

CCC1(CC)CC(=O)c2cc(-c3nc(-c4cccnc4F)no3)ccc2O1 [Compound 547, 2,2-diethyl-6-(3-(2-fluoropyridin-3-yl)-1,2,4-oxadiazol-5-yl)chroman-4-one]
inhibition in vivo at 3 mg/kg [1]: > 50% | hS1P1 cAMP pEC50 [2]: >6.5 | hS1P1 B-arrestin2 pEC50 [3]: >5

CCC1(CC)CC(=O)c2cc(-c3nc(-c4cnccc4C(F)(F)F)no3)ccc2O1 [Compound 558, 2,2-diethyl-6-(3-(4-(trifluoromethyl)pyridin-3-yl)-1,2,4-oxadiazol-5-yl)chroman-4-one]
inhibition in vivo at 3 mg/kg [1]: > 50% | hS1P1 cAMP pEC50 [2]: >6.5 | hS1P1 B-arrestin2 pEC50 [3]: >5

Cc1nc2cc(-c3nnc(-c4ccc(NC(C)C)c(C#N)c4)o3)ccc2[nH]1 [Compound 560, 5-[5-(2-methyl-1H-1,3-benzodiazol-5-yl)-1,3,4-oxadiazol-2-yl]-2-[(propan-2-yl)amino]benzonitrile]
inhibition in vivo at 3 mg/kg [1]: > 50% | hS1P1 cAMP pEC50 [2]: >6.5 | hS1P1 B-arrestin2 pEC50 [3]: >5

CCC1(CC)CC(=O)c2cc(-c3nc(-c4cccnc4C(F)(F)F)no3)ccc2O1 [Compound 562, 2,2-diethyl-6-(3-(2-(trifluoromethyl)pyridin-3-yl)-1,2,4-oxadiazol-5-yl)chroman-4-one]
inhibition in vivo at 3 mg/kg [1]: > 50% | hS1P1 cAMP pEC50 [2]: >6.5 | hS1P1 B-arrestin2 pEC50 [3]: >5

CCC1(CC)CC(=O)c2cc(-c3nc(-c4cncc(C)c4)no3)ccc2O1 [Compound 563, 2,2-diethyl-6-(3-(5-methylpyridin-3-yl)-1,2,4-oxadiazol-5-yl)chroman-4-one]
inhibition in vivo at 3 mg/kg [1]: < 50% | hS1P1 cAMP pEC50 [2]: >6.5 | hS1P1 B-arrestin2 pEC50 [3]: >5

CCC1(CC)CC(=O)c2cc(-c3nc(-c4cccnc4C)no3)ccc2O1 [Compound 564, 2,2-diethyl-6-(3-(2-methylpyridin-3-yl)-1,2,4-oxadiazol-5-yl)chroman-4-one]
inhibition in vivo at 3 mg/kg [1]: > 50% | hS1P1 cAMP pEC50 [2]: >6.5 | hS1P1 B-arrestin2 pEC50 [3]: >5

CCC1(CC)CC(=O)c2cc(-c3nc(-c4ccc(NS(C)(=O)=O)cc4OC)no3)ccc2O1 [Compound 568, N-{4-[5-(2,2-diethyl-4-oxo-3,4-dihydro-2H-1-benzopyran-6-yl)-1,2,4-oxadiazol-3-yl]-3-methoxyphenyl}methanesulfonamide]
inhibition in vivo at 3 mg/kg [1]: < 50% | hS1P1 cAMP pEC50 [2]: >6.5 | hS1P1 B-arrestin2 pEC50 [3]: >5

CC(C)Nc1ccc(-c2nnc(-c3ccc4ncn(C)c4c3)o2)cc1C#N [Compound 579, 5-[5-(1-methyl-1H-1,3-benzodiazol-6-yl)-1,3,4-oxadiazol-2-yl]-2-[(propan-2-yl)amino]benzonitrile]
inhibition in vivo at 3 mg/kg [1]: > 50% | hS1P1 cAMP pEC50 [2]: >6.5 | hS1P1 B-arrestin2 pEC50 [3]: >5

Cn1cnc2ccc(-c3nnc(-c4ccc(NCC(F)F)c(C#N)c4)o3)cc21 [Compound 580, 2-[(2,2-difluoroethyl)amino]-5-[5-(1-methyl-1H-1,3-benzodiazol-6-yl)-1,3,4-oxadiazol-2-yl]benzonitrile]
inhibition in vivo at 3 mg/kg [1]: > 50% | hS1P1 cAMP pEC50 [2]: >6.5 | hS1P1 B-arrestin2 pEC50 [3]: >5

CCC1(CC)CC(=O)c2cc(-c3nc(-c4ccc(NC(C)=O)cc4OC(F)(F)F)no3)ccc2O1 [Compound 584, N-{4-[5-(2,2-diethyl-4-oxo-3,4-dihydro-2H-1-benzopyran-6-yl)-1,2,4-oxadiazol-3-yl]-3-(trifluoromethoxy)phenyl}acetamide]
inhibition in vivo at 3 mg/kg [1]: > 50% | Emax [2]: > 75% | hS1P1 cAMP pEC50 [2]: >6.5 | Emax [3]: > 75% | hS1P1 B-arrestin2 pEC50 [3]: >5

CC(C)Nc1ccc(-c2nnc(-c3cccc4[nH]cnc34)o2)cc1C#N [Compound 585, 5-[5-(1H-1,3-benzodiazol-4-yl)-1,3,4-oxadiazol-2-yl]-2-[(propan-2-yl)amino]benzonitrile]
inhibition in vivo at 3 mg/kg [1]: < 50% | hS1P1 cAMP pEC50 [2]: >6.5 | hS1P1 B-arrestin2 pEC50 [3]: >5

N#Cc1cc(-c2nnc(-c3cccc4[nH]cnc34)o2)ccc1NCC(F)F [Compound 586, 5-[5-(1H-1,3-benzodiazol-4-yl)-1,3,4-oxadiazol-2-yl]-2-[(2,2-difluoroethyl)amino]benzonitrile]
inhibition in vivo at 3 mg/kg [1]: < 50% | hS1P1 cAMP pEC50 [2]: >6.5 | hS1P1 B-arrestin2 pEC50 [3]: >5

N#Cc1cc(-c2nnc(-c3ccc4[nH]cnc4c3)o2)ccc1NC1CC1 [Compound 598, 5-[5-(1H-1,3-benzodiazol-5-yl)-1,3,4-oxadiazol-2-yl]-2-(cyclopropylamino) benzonitrile]
inhibition in vivo at 3 mg/kg [1]: < 50% | Emax [2]: > 75% | hS1P1 cAMP pEC50 [2]: >6.5 | Emax [3]: > 75% | hS1P1 B-arrestin2 pEC50 [3]: >5

N#Cc1cc(-c2nnc(-c3ccc4[nH]cnc4c3)o2)ccc1NC(CF)CF [Compound 600, 5-[5-(1H-1,3-benzodiazol-5-yl)-1,3,4-oxadiazol-2-yl]-2-[(1,3-difluoropropan-2-yl)amino]benzonitrile]
inhibition in vivo at 3 mg/kg [1]: < 50% | Emax [2]: > 75% | hS1P1 cAMP pEC50 [2]: >6.5 | Emax [3]: > 75% | hS1P1 B-arrestin2 pEC50 [3]: >5

COc1cnccc1-c1nc(-c2ccc3c(c2)nnn3C(C)C)no1 [Compound 606, 3-(1-isopropyl-1H-benzo[d][1,2,3]triazol-5-yl)-5-(3-methoxypyridin-4-yl)-1,2,4-oxadiazole]
inhibition in vivo at 3 mg/kg [1]: > 50% | Emax [2]: > 75% | hS1P1 cAMP pEC50 [2]: >6.5 | Emax [3]: > 75% | hS1P1 B-arrestin2 pEC50 [3]: >5

From patent US11912693B2, “Compounds for modulating S1P1 activity and methods of using the same” (TREVENA, INC., priority 2017, dated 2024)
